# How the values were obtained:
# OPCs [1] = experiment: Mitochondrial respiration assay (oxygen consumption rate, XFe96 Seahorse); assay type: cell-based, rat; details: 2 mM taurine, day 6, basal and benztropine- or miconazole-induced differentiation conditions
# Method: Mitochondrial respiration assay. Cellular oxygen consumption rate (OCR) was measured using an XFe96 extracellular flux analyzer (Seahorse Biosciences). OPCs were seeded at 40,000 cells/well in PLP-coated XFe96 plates and cultured for 6 days with taurine (2 and 20 mM) alone, or together with miconazole and benztropine. Cells were then incubated in assay medium (DMEM with 20 mM glucose, 5 mM pyruvate and 5 mM sodium bicarbonate, pH˜7.4) for at least 30 min prior to the assay. Media to deliver a final assay well concentration corresponding to of 1 μM oligomycin, 2 μM carbonyl cyanide 4-(trifluoromethoxy) phenylhydrazone (FCCP) and 2 μM rotenone+2 μM antimycin A were pre-loaded into the compound delivery ports of the system. The assay starts with the recording of the basal OCR, followed by recording of the OCR in response to different compounds that constitute the Mitochondria Stress Test (Seahorse Biosciences, Agilent). Once the basal OCR was measured, the compounds were added sequentially and the effects on OCR measured 3 times every 5 min. Oligomycin blocks ATP synthase; FCCP dissipates the inner membrane potential enabling maximum electron flux through the electron transport chain (ETC); rotenone+antimycin A inhibit complexes I and III, respectively, thereby blocking the entry of electrons in the ETC and shutting down mitochondrial activity.
# OPCs [2] = experiment: Binary global metabolomics analysis of taurine co-treatment; assay type: cell-based, rat; details: for Cysteine pool, increase with taurine / Serine pool, increase with taurine / GSH level, increase with taurine / Cysteine level, increase with taurine / Serine level, increase with taurine: 20 mM taurine; for Cysteine pool, increase with taurine / Serine pool, increase with taurine: 3 days
# Method: Rat primary optic nerve OPCs were isolated by panning (>99% A2B5^+) and cultured in poly-D-lysine (10 μg/ml)-coated TC dishes in OPC culture media (Neurobasal Media, Invitrogen) supplemented with B27-without vitamin A (Invitrogen), 1× non-essential amino acids, 1× Glutamax, 1× anti-anti, β-mercaptoethanol and PDGF-AA (50 ng/ml; Peprotech) at 37° C. with 5% CO2. The culture medium was replaced every 48 h and cells were collected before the confluency reached 60% to maintain a naive state. For differentiation, OPCs were plated at 1 million cells in one 10 cm petri-dish filled with differentiation media, which is identical to the culture media, but with PDGF-AA at 2 ng/ml. T3 and DMSO were used as the positive control and negative control, respectively. Five replicates of cells were collected at different times (0, 3, and 6 days) for metabolomics studies.
# Global metabolomics and lipidomics. Cells incubated in differentiation medium were collected at Day 0, 3 and 6 for both the T3 and DMSO treated OPC. The cells were first rinsed with PBS twice to completely remove the culture medium and then scraped into a 1.5 mL Eppendorf vial using 500-1000 μL PBS. Subsequently, cells were collected by aspirating the supernatant after centrifugation at 1,000 rpm at 4° C. for 3 min. The global metabolites were extracted from cell pellets by a methanol:acetonitrile:water (2:2:1, v/v) solvent mixture. A volume of 600 μL of cold solvent was added to each pellet, vortexed for 30 s, and soaked in liquid nitrogen for 1 min. Samples were then allowed to thaw at room temperature and then sonicated for 10 min. This freeze-thaw process was repeated for additional twice. To further precipitate proteins, samples were incubated for 1 h at […], followed by centrifugation at 16,000 g at 4° C. for 15 min. The protein concentration of the cells was measured in the final pellet after centrifugation using BCA assay. The resulting supernatant was removed and evaporated to dryness in a vacuum concentrator (LABCONCO CentriVap Benchtop). The dry extracts were then reconstituted in the appropriate volume of acetonitrile/water (1:1, v/v), normalized by the protein concentration with the lowest concentration approximately 50 μL, sonicated for 10 min, and centrifuged for 15 min at 16,000 g and 4° C. to remove insoluble debris. The supernatants were transferred to HPLC vials with inserts and stored at −80° C. prior to LC/MS analysis. The Folch method was used to extract the lipids from OPCs treated with T3 and DMSO for 6 days. A mixture of 600 μL, chloroform/MeOH (2:1, v/v) was used in the freeze-thaw extraction method as described above, and a subsequent addition of 600 μL, of water was performed. Using this liquid-liquid extraction method, the organic phase was collected, dried and finally reconstituted in IPA/MeOH/H2O (5:1:4, v/v/v) before analysis.
# Cell extracts were analyzed on a 6550 iFunnel QTOF mass spectrometer (Agilent Technologies) coupled with a 1290 UPLC system (Agilent Technologies). For global metabolomics, HPLC was carried out on a Luna Aminopropyl, 3 μm, 150 mm×1.0 mm I.D. HILIC column (Phenomenex). The mobile phase was composed of A=20 mM ammonium acetate and 40 mM ammonium hydroxide in 95% water (v/v) and B=95% acetonitrile. The remaining 5% components were either acetonitrile or water, respectively. A linear gradient from 100% B (0-5 min) to 100% A (50-55 min) was applied. A 10 min re-equilibration time was applied to the HILIC column for re-equilibration and maintenance of reproducibility. The flow rate was 50 μL/min, and the sample injection volume was 5 μL. ESI source conditions were set as follows: dry gas temperature, 200° C.; flow, 11 L/min, fragmentor, 380 V; sheath gas temperature, 300° C.; flow, 9 L/min; nozzle voltage, 500 V; capillary voltage, −500 V in ESI negative mode. The instrument was set to acquire data over the m/z range 50-1000, with the MS acquisition rate of 1 spectra/s. […]
smiles,measurement,setting,value
"NCCS(=O)(=O)O [taurine, 2-aminoethanesulfonic acid]",Oxygen consumption rate (OCR) values,OPCs [1],significantly increase
same,"Cysteine pool, increase with taurine",OPCs [2]; T3 1 μM,58.8 fold
same,"Serine pool, increase with taurine",OPCs [2]; T3 1 μM,17.1 fold
same,"Cysteine pool, increase with taurine",OPCs [2]; benztropine 0.5 μM,154.4 fold
same,"Serine pool, increase with taurine",OPCs [2]; benztropine 0.5 μM,10.0 fold
same,"Cysteine pool, increase with taurine",OPCs [2]; miconazole 2 μM,76.5 fold
same,"Serine pool, increase with taurine",OPCs [2]; miconazole 2 μM,19.4 fold
same,"GSH level, increase with taurine","OPCs [2]; day 3, T3 1 μM",1.8 fold
same,"Cysteine level, increase with taurine","OPCs [2]; day 6, T3 1 μM",26.6 fold
same,"GSH level, increase with taurine","OPCs [2]; day 6, T3 1 μM",6.1 fold
same,"Serine level, increase with taurine","OPCs [2]; day 6, T3 1 μM",2.1 fold
same,"Cysteine level, increase with taurine","OPCs [2]; day 6, benztropine 0.5 μM",44.7 fold
same,"Serine level, increase with taurine","OPCs [2]; day 6, benztropine 0.5 μM",13.4 fold
same,"Cysteine level, increase with taurine","OPCs [2]; day 6, miconazole 2 μM",47.2 fold
same,"Serine level, increase with taurine","OPCs [2]; day 6, miconazole 2 μM",92.5 fold
same,Changes in GSH and glutamate with taurine,"OPCs [2]; benztropine (0.5 μM) or miconazole (2 μM) treated cultures, both time points",only minimally altered

# — patent publication US11998602B2, “Methods for promoting myelination and for treating demyelinating diseases” (The Scripps Research Institute, priority 2018, dated 2024)
